Test [1] concerns the target T1, ornithine 4,5-aminomutase (OAM) (Acetoanaerobium sticklandii, UniProt E3PY95, E335A).
T1 construct: gene oraE
The test is described as follows: biochemical.

For test [2], the target named is T2, ornithine 4,5-aminomutase (OAM) (Acetoanaerobium sticklandii, UniProt E3PY95, E335D).
T2 construct: gene oraE
Kind of test: biochemical.

For test [3], the target named is T3, ornithine 4,5-aminomutase (OAM) (Acetoanaerobium sticklandii, UniProt E3PY95, E335Q).
T3 construct: gene oraE
Kind of test: biochemical.

Test [4] addresses T4, ornithine 4,5-aminomutase (OAM) (Acetoanaerobium sticklandii, UniProt E3PY95).
T4 construct: gene oraE; recombinant, expressed from pET-OAMH2 vector and purified; holoenzyme with PLP and AdoCbl; Glu338 (TIM barrel) and Lys629 lie in OraE
T4 sequence (E3PY95 1-740): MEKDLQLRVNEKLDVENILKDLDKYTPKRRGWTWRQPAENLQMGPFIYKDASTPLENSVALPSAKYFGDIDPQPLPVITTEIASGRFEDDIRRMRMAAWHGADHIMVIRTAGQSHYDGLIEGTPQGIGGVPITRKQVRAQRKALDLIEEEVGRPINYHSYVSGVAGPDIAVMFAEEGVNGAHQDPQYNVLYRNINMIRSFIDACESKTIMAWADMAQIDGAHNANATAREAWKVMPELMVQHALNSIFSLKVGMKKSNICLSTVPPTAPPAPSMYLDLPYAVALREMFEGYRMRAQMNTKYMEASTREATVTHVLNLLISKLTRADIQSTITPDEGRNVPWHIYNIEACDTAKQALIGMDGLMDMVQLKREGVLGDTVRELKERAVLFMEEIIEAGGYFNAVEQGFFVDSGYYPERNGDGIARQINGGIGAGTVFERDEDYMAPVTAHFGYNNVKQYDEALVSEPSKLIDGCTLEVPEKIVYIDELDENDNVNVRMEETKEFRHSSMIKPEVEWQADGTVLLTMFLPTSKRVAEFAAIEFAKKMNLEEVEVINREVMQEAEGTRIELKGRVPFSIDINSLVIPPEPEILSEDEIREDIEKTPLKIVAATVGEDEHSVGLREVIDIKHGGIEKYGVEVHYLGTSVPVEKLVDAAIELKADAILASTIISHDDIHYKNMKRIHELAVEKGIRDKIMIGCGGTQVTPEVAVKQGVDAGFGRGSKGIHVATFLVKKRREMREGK
T4 sequence (E3PY96 1-121 partner): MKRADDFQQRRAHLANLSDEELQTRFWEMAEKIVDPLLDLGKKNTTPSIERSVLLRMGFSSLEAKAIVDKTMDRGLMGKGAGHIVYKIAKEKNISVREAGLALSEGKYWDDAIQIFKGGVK
Kind of test: anaerobic coupled DAPDH assay, NADH at […] nm. The following applies: read-out: Ki(DAB). The class given is biochemical.

Turning to `NCCC(N)C(=O)O` (racemic) [D,L-2,4-diaminobutyric acid], the Ki (as a rule, the dissociation constant of the complex between target and ligand, obtained from inhibition or displacement) came out at 18.8 ± 2.2 µM in test [1], 15.2 ± 1.5 µM in test [2], 11.2 ± 0.1 µM in test [3] and 5.2 ± 0.1 µM in test [4].

The values are drawn from publication PMC4413051, “Glutamate 338 is an electrostatic facilitator of C–Co bond breakage in a dynamic/electrostatic model of catalysis by ornithine aminomutase” (The Febs Journal, 2015).
